Results published in ChEMBL document CHEMBL3856234, “Development of Multifunctional Pyrimidinylthiourea Derivatives as Potential Anti-Alzheimer Agents” (J Med Chem, 2016).
In brackets after ≈: the same amount, converted by molar mass.

Columns and labels:
Rattus norvegicus [1] = organism: Rattus norvegicus; assay: Selectivity index, ratio of IC50 for rat serum BuChE to IC50 for rat cortex AChE
[2] = Antioxidant activity assessed as trolox equivalent of AAPH radical scavenging activity preincubated for 10 mins followed by AAPH challenge measured every min for 180 mins by ORAC-FL assay; assay type: functional
[3] = Permeability of the compound in PBS/EtOH (7:3) buffer measured after 10 hrs by PAMPA assay; assay type: ADME; conditions: read-out: Peff
Acetylcholinesterase = target: T1, Acetylcholinesterase (Rattus norvegicus, UniProt P37136); assay: Inhibition of rat cortex AChE using acetylthiocholine iodide as substrate measured after 20 mins by Ellman's method
T1 sequence (P37136 whole entry): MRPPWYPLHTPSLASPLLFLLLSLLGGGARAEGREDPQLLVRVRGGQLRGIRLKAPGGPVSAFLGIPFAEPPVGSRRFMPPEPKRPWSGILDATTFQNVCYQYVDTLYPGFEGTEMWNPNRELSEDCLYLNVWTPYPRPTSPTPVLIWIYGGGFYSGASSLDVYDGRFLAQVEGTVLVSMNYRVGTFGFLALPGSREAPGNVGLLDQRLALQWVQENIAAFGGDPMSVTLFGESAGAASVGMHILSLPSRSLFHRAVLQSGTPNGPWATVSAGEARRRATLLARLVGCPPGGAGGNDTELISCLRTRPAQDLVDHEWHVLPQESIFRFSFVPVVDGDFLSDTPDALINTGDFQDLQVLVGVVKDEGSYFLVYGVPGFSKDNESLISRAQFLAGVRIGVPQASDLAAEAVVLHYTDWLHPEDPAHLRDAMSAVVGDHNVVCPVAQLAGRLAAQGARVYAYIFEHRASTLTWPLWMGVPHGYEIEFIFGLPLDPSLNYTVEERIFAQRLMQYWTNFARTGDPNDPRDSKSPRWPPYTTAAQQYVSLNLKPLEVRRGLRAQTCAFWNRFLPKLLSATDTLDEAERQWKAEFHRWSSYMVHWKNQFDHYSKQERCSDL

[4] = Inhibition of rat serum BuChE using butyrylthiocholine as substrate measured after 20 mins by Ellman's method
[5] = Cytotoxicity against human SH-SY5Y cells assessed as reduction in cell viability at 10 and 30 uM measured after 24 hrs by MTT assay; assay type: toxicity, cell-based
[6] = Cytotoxicity against human SH-SY5Y cells assessed as reduction in cell viability at 100 uM measured after 24 hrs by MTT assay; assay type: toxicity, cell-based
Rattus norvegicus [7] = organism: Rattus norvegicus; assay: Inhibition of rat serum BuChE at 40 uM using butyrylthiocholine as substrate measured after 20 mins by Ellman's method relative to control
[8] = target: T2, Acetylcholinesterase (Rattus norvegicus) (UniProt P37136); assay: Inhibition of rat cortex AChE at 40 uM using acetylthiocholine iodide as substrate measured after 20 mins by Ellman's method relative to control
T2 sequence (whole entry): T1 sequence (P37136 whole entry)

[9] = Metal chelating activity assessed as Cu2+-compound complex formation at 40 uM measured after 1 hr by UV-vis spectroscopic analysis; assay type: physicochemical
[10] = Solubility of the compound in water measured after 24 hrs by HPLC analysis; assay type: physicochemical
[11] = Metal chelating activity assessed as Zn2+-compound complex formation at 40 uM measured after 1 hr by UV-vis spectroscopic analysis; assay type: physicochemical
[12] = Metal chelating activity assessed as Fe2+-compound complex formation at 40 uM measured after 1 hr by UV-vis spectroscopic analysis; assay type: physicochemical
[13] = Cytotoxicity against human SH-SY5Y cells assessed as reduction in cell viability after 24 hrs in presence of Cu2+ ion by MTT assay; assay type: toxicity, cell-based
[14] = Metal chelating activity assessed as Fe3+-compound complex formation at 40 uM measured after 1 hr by UV-vis spectroscopic analysis; assay type: physicochemical

CCNC(=S)Nc1cc(-n2cnc(CN3CCCCCC3)c2)ncn1
Ratio IC50 (Rattus norvegicus [1]): 59
Activity (umolequiv/umol) [2]: 1.24
Papp at 10 h [3]: 5.3 ×10⁻⁶ cm/s
IC50 (Acetylcholinesterase): 0.121 µM
IC50 [4]: 7.19 µM

COc1cc2c(cc1OC)C(=O)C(CC1CCN(Cc3ccccc3)CC1)C2 (stereo not drawn) [DONEPEZIL]
Activity [5]: Non-Toxic
Activity [6]: Toxic

CCNC(=S)Nc1cc(-n2cnc(CN(C)C)c2)ncn1
inhibition (Rattus norvegicus [7]): 7.02%
Ratio IC50 (Rattus norvegicus [1]): > 261
Activity (umolequiv/umol) [2]: 1.17
Papp at 10 h [3]: 3 ×10⁻⁶ cm/s
IC50 (Acetylcholinesterase): 0.153 µM
IC50 [4]: > 40 µM

CCNCc1cn(-c2cc(NC(=S)NCC)ncn2)cn1
inhibition (Rattus norvegicus [7]): 21.5%
Ratio IC50 (Rattus norvegicus [1]): > 117
Activity (umolequiv/umol) [2]: 1.33
IC50 (Acetylcholinesterase): 0.342 µM
IC50 [4]: > 40 µM

CCNC(=S)Nc1cc(-n2cnc([N+](=O)[O-])c2)ncn1
IC50 (Acetylcholinesterase): 0.17 µM

CCNC(=S)Nc1nc2c(c(-n3ccnc3)n1)CCC2
IC50 (Acetylcholinesterase): > 40 µM
inhibition [8]: 24.4%

C/C=C1\[C@H]2C=C(C)C[C@]1(N)c1ccc(=O)[nH]c1C2 [HUPERZINE A]
Ratio IC50 (Rattus norvegicus [1]): 444
IC50 (Acetylcholinesterase): 0.082 µM
Activity [5]: Non-Toxic
Activity [6]: Non-Toxic
IC50 [4]: 36.4 µM

CCNC(=S)Nc1cc(-n2cnc(C(=O)OC)c2)ncn1
IC50 (Acetylcholinesterase): 0.347 µM

CCNC(=S)Nc1cc(-n2cccc2)ncn1
IC50 (Acetylcholinesterase): > 40 µM
inhibition [8]: 13.8%

CCNC(=S)Nc1ncnc(-n2ccnc2)c1C
IC50 (Acetylcholinesterase): > 40 µM
inhibition [8]: 45.9%

CCCN(CCC)Cc1cn(-c2cc(NC(=S)NCC)ncn2)cn1
Activity [9]: Active
solubility at 24 h [10]: 58 µg/mL (≈ 160 µM)
Activity [11]: Active
Activity [12]: Active
Papp at 10 h [3]: 7.5 ×10⁻⁶ cm/s
IC50 (Acetylcholinesterase): 0.204 µM
Activity [5]: Non-Toxic
Activity [6]: Toxic
Activity [13]: Non-Toxic
IC50 [4]: > 40 µM
Activity [14]: Active

CCNC(=S)Nc1cc(-n2cnc(CN3CCCC3)c2)ncn1
Activity [9]: Active
solubility at 24 h [10]: 340 µg/mL (≈ 1030 µM)
Activity [11]: Active
Activity [12]: Active
Papp at 10 h [3]: 1.15 ×10⁻⁶ cm/s
IC50 (Acetylcholinesterase): 0.067 µM
Activity [5]: Non-Toxic
Activity [6]: Toxic
Activity [13]: Non-Toxic
IC50 [4]: > 40 µM
Activity [14]: Active

CCNC(=S)Nc1cc(-n2cncn2)ncn1
IC50 (Acetylcholinesterase): 1.05 µM
inhibition [8]: 66.6%

CCNc1cc(-n2cccn2)ncn1
inhibition [8]: 32.1%

CCCNC(=S)Nc1cc(-n2cccn2)ncn1
IC50 (Acetylcholinesterase): 22 µM
inhibition [8]: 64%

S=C(NCc1cccc(Cl)c1)Nc1cc(-n2cccn2)ncn1
inhibition [8]: 0%

CNCCCN1c2ccccc2CCc2ccccc21 [DESIPRAMINE]
Papp at 10 h [3]: 16.6 ×10⁻⁶ cm/s

CNC(=S)Nc1cc(-n2cccn2)ncn1
inhibition [8]: 46%

CCCc1cc(-n2cccn2)ncn1
inhibition [8]: 9.88%

CCNC(=S)Nc1cc(-n2cnc(CN3CCCCC3)c2)ncn1
Ratio IC50 (Rattus norvegicus [1]): 164
Activity (umolequiv/umol) [2]: 1.27
Papp at 10 h [3]: 5 ×10⁻⁶ cm/s
IC50 (Acetylcholinesterase): 0.111 µM
IC50 [4]: 18.2 µM

CCNC(=S)Nc1cc(N2CCN(C)CC2)ncn1
IC50 (Acetylcholinesterase): 3.26 µM
inhibition [8]: 70.1%

CCNC(=S)Nc1cc(-n2ccnn2)ncn1
IC50 (Acetylcholinesterase): 14.4 µM
inhibition [8]: 61.5%

CCNC(=S)Nc1cc(-n2ccnc2)ncn1
IC50 (Acetylcholinesterase): 1.59 µM
inhibition [8]: 72.8%

CCNC(=S)Nc1cc(-n2ccnc2CC)ncn1
IC50 (Acetylcholinesterase): 6.7 µM

CCNC(=S)Nc1nccc(-n2ccnc2)n1
IC50 (Acetylcholinesterase): 8.45 µM
inhibition [8]: 64.9%

S=C(NCc1ccccc1)Nc1cc(-n2cccn2)ncn1
inhibition [8]: 17.3%

CCNC(=S)Nc1cc(-n2cnc(C(F)(F)F)c2)ncn1
IC50 (Acetylcholinesterase): 0.957 µM

CCNC(=S)Nc1cc(-n2cnc(C)c2)ncn1
IC50 (Acetylcholinesterase): 3.25 µM

CC(=O)Nc1cc(-n2cccn2)ncn1
inhibition [8]: 5.09%

CC(C)(C)NC(=S)Nc1cc(-n2cccn2)ncn1
inhibition [8]: 11.3%

CCNC(=S)Nc1cc(-n2ccnc2)nc(C)n1
IC50 (Acetylcholinesterase): 8.72 µM
inhibition [8]: 71.4%

CCNC(=S)Nc1cc(-n2cnc(CNCc3ccccc3)c2)ncn1
inhibition (Rattus norvegicus [7]): 48%
Ratio IC50 (Rattus norvegicus [1]): > 146
Activity (umolequiv/umol) [2]: 1.3
IC50 (Acetylcholinesterase): 0.274 µM
IC50 [4]: > 40 µM
